Tests used:
[1] = system: wheat; test: Test A pre-/postemergence greenhouse test; assay type: in vivo, Triticum aestivum; conditions: for Wheat plant response rating: 0 to 100 scale; for Plant response rating, Wheat: 0 to 100 scale where 0 is no effect and 100 is complete control
How it was run: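 Visual injury ratings against untreated controls, taken roughly ten days after treatment in greenhouse. Plants were sprayed postemergence at one- to two-leaf stage (2–10 cm tall); at the same time, seeded loam/sand soil received a directed preemergence spray. Formulation: non-phytotoxic solvent mixture with surfactant.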

[2] = system: crabgrass; test: Test C pre-/postemergence test; assay type: in vivo, Digitaria sanguinalis; conditions: for Plant response rating, Crabgrass, Large: scale 0 to 100, 0 no effect, 100 complete control
How it was run: (§1)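 Test chemicals were formulated with surfactant in a non-phytotoxic solvent and sprayed both on freshly planted seeds (preemergence) and on 1- to 4-leaf plants of 2–18 cm (postemergence). Flooded-paddy pots received compound directly into 3 cm of standing water, maintained for the test.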

[3] = system: Goosegrass; test: Test C pre-/postemergence test; assay type: in vivo, Eleusin indica; conditions: for Plant response rating, Goosegrass: scale 0 to 100, 0 no effect, 100 complete control
How it was run: as §1

[4] = system: green foxtail; test: Test F preemergence test; assay type: in vivo, Setaria viridis; conditions: scale 0 to 100; for Foxtail, Green plant response rating: 62 g ai/ha
How it was run: (§2)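 Preemergence application to planted seeds, or postemergence to sugarcane plants; compound in non-phytotoxic solvent mix plus surfactant. Greenhouse, 14-21 days. Visual rating vs. controls.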

[5] = system: kochia; test: Test F preemergence test; assay type: in vivo, Kochia scoparia; conditions: scale 0 to 100; for Kochia plant response rating: 62 g ai/ha
How it was run: as §2

[6] = system: mustard; test: Test F preemergence test; assay type: in vivo, Brassica nigra; conditions: scale 0 to 100; for Black Mustard plant response rating: 62 g ai/ha
How it was run: as §2

[7] = system: dallisgrass; test: Test F preemergence test; assay type: in vivo, Paspalum dilatatum; conditions: scale 0 to 100; for Dallisgrass plant response rating: 62 g ai/ha
How it was run: as §2

[8] = system: common groundsel; test: Test F preemergence test; assay type: in vivo, Senecio vulgaris; conditions: scale 0 to 100; for Groundsel plant response rating: 62 g ai/ha
How it was run: as §2

[9] = system: annual bluegrass; test: Test F preemergence test; assay type: in vivo, Poa annua; conditions: scale 0 to 100; for Bluegrass plant response rating: 62 g ai/ha
How it was run: as §2

[10] = system: quackgrass; test: Test F preemergence test; assay type: in vivo, Elytrigia repens; conditions: scale 0 to 100; for Quackgrass plant response rating: 62 g ai/ha
How it was run: as §2

[11] = system: common mallow; test: Test F preemergence test; assay type: in vivo, Malva sylvestris; conditions: scale 0 to 100; for Mallow plant response rating: 62 g ai/ha
How it was run: as §2

[12] = Postemergence, 125 g ai/ha, 0 is no effect, 100 is complete control
[13] = Postemergence, 500 g ai/ha, 0 is no effect, 100 is complete control
[14] = Preemergence, 125 g ai/ha, 0 no effect, 100 complete control
[15] = 31 g ai/ha, Preemergence, scale 0 to 100
[16] = 62 g ai/ha, preemergence, scale 0 (no effect) to 100 (complete control)
[17] = preemergence, 125 g ai/ha, scale 0 (no effect) to 100 (complete control)

Cn1nc(C(F)(F)F)c(C[S+]([O-])c2cccc[n+]2[O-])c1OC(F)F (centres unmarked) [Compound 3]
30: Plant response rating, Kochia ([5]; Preemergence, 16 g ai/ha)
95: Foxtail, Green plant response rating ([4]; Preemergence) | Plant response rating, Black Mustard ([6]; Preemergence, 31 g ai/ha)
40: Plant response rating, Foxtail, Green ([4]; Preemergence, 16 g ai/ha)
65: Plant response rating, Goosegrass ([3]; Postemergence, 125 g ai/ha) | Plant response rating, Kochia ([5]; Preemergence, 31 g ai/ha)
80: Plant response rating, Goosegrass ([3]; Postemergence, 250 g ai/ha)
70: Wheat plant response rating [1, 13] | Plant response rating, Crabgrass, Large ([2]; Postemergence, 250 g ai/ha) | Plant response rating, Quackgrass ([10]; Preemergence, 31 g ai/ha)
20: Plant response rating (0 to 100), Goosegrass ([3]; Postemergence, 31 g ai/ha) | Plant response rating, Kochia ([5]; 8 g ai/ha, preemergence)
45: Crabgrass, Large plant response rating [2, 15]
85: Goosegrass plant response rating [3, 15]
75: Plant response rating, Foxtail, Green ([4]; Preemergence, 31 g ai/ha) | Plant response rating, Dallisgrass ([7]; Preemergence, 31 g ai/ha) | Quackgrass plant response rating ([10]; Preemergence) | Mallow plant response rating ([11]; Preemergence)
60: Wheat plant response rating [1, 12] | Wheat plant response rating [1, 14] | Plant response rating, Black Mustard ([6]; Preemergence, 16 g ai/ha) | Plant response rating, Groundsel ([8]; Preemergence, 31 g ai/ha)
15: Plant response rating, Quackgrass ([10]; Preemergence, 16 g ai/ha)
50: Plant response rating, Crabgrass, Large ([2]; Postemergence, 125 g ai/ha) | Plant response rating, Goosegrass ([3]; Postemergence, 62 g ai/ha) | Bluegrass plant response rating ([9]; Preemergence) | Plant response rating, Bluegrass ([9]; Preemergence, 31 g ai/ha)
35: Plant response rating, Black Mustard ([6]; 8 g ai/ha, preemergence)
100: Plant response rating, Wheat ([1]; Preemergence, 500 g ai/ha) | Plant response rating (0 to 100), Crabgrass, Large ([2]; Preemergence, 250 g ai/ha) | Crabgrass, Large plant response rating [2, 17] | Goosegrass plant response rating [3, 16] | Plant response rating (0 to 100), Goosegrass ([3]; Preemergence, 250 g ai/ha) | Goosegrass plant response rating [3, 17] | Kochia plant response rating ([5]; Preemergence) | Black Mustard plant response rating ([6]; Preemergence) | Groundsel plant response rating ([8]; Preemergence)
98: Crabgrass, Large plant response rating [2, 16] | Dallisgrass plant response rating ([7]; Preemergence)
0: Plant response rating (0 to 100), Crabgrass, Large ([2]; Postemergence, 31 g ai/ha) | Plant response rating, Crabgrass, Large ([2]; Postemergence, 62 g ai/ha) | Plant response rating, Foxtail, Green ([4]; 8 g ai/ha, preemergence) | Plant response rating, Dallisgrass ([7]; 8 g ai/ha, preemergence) | Plant response rating, Dallisgrass ([7]; Preemergence, 16 g ai/ha) | Plant response rating, Groundsel ([8]; 8 g ai/ha, preemergence) | Plant response rating, Groundsel ([8]; Preemergence, 16 g ai/ha) | Plant response rating, Bluegrass ([9]; 8 g ai/ha, preemergence) | Plant response rating, Bluegrass ([9]; Preemergence, 16 g ai/ha) | Plant response rating, Quackgrass ([10]; 8 g ai/ha, preemergence) | Plant response rating, Mallow ([11]; 8 g ai/ha, preemergence) | Plant response rating, Mallow ([11]; Preemergence, 16 g ai/ha) | Plant response rating, Mallow ([11]; Preemergence, 31 g ai/ha)

Cn1nc(C(F)(F)F)c(CS(=O)(=O)c2cccc[n+]2[O-])c1OC(F)F [Compound 4]
20: Plant response rating, Black Mustard ([6]; Preemergence, 16 g ai/ha) | Plant response rating, Bluegrass ([9]; Preemergence, 31 g ai/ha)
60: Wheat plant response rating [1, 12] | Wheat plant response rating [1, 13]
80: Plant response rating, Wheat ([1]; Preemergence, 500 g ai/ha) | Dallisgrass plant response rating ([7]; Preemergence)
70: Plant response rating, Foxtail, Green ([4]; Preemergence, 31 g ai/ha)
0: Plant response rating, Foxtail, Green ([4]; 8 g ai/ha, preemergence) | Plant response rating, Kochia ([5]; 8 g ai/ha, preemergence) | Plant response rating, Kochia ([5]; Preemergence, 16 g ai/ha) | Plant response rating, Black Mustard ([6]; 8 g ai/ha, preemergence) | Plant response rating, Dallisgrass ([7]; 8 g ai/ha, preemergence) | Plant response rating, Dallisgrass ([7]; Preemergence, 16 g ai/ha) | Plant response rating, Bluegrass ([9]; 8 g ai/ha, preemergence) | Plant response rating, Bluegrass ([9]; Preemergence, 16 g ai/ha) | Plant response rating, Quackgrass ([10]; 8 g ai/ha, preemergence) | Plant response rating, Quackgrass ([10]; Preemergence, 16 g ai/ha) | Plant response rating, Mallow ([11]; 8 g ai/ha, preemergence) | Mallow plant response rating ([11]; Preemergence) | Plant response rating, Mallow ([11]; Preemergence, 16 g ai/ha) | Plant response rating, Mallow ([11]; Preemergence, 31 g ai/ha)
100: Crabgrass, Large plant response rating [2, 16] | Plant response rating (0 to 100), Crabgrass, Large ([2]; Preemergence, 250 g ai/ha) | Crabgrass, Large plant response rating [2, 17] | Goosegrass plant response rating [3, 15] | Goosegrass plant response rating [3, 16] | Plant response rating (0 to 100), Goosegrass ([3]; Preemergence, 250 g ai/ha) | Goosegrass plant response rating [3, 17] | Groundsel plant response rating ([8]; Preemergence) | Plant response rating, Groundsel ([8]; Preemergence, 31 g ai/ha)
98: Crabgrass, Large plant response rating [2, 15] | Black Mustard plant response rating ([6]; Preemergence) | Plant response rating, Black Mustard ([6]; Preemergence, 31 g ai/ha)
35: Plant response rating, Foxtail, Green ([4]; Preemergence, 16 g ai/ha) | Plant response rating, Dallisgrass ([7]; Preemergence, 31 g ai/ha) | Plant response rating, Quackgrass ([10]; Preemergence, 31 g ai/ha)
25: Plant response rating, Groundsel ([8]; Preemergence, 16 g ai/ha)
75: Kochia plant response rating ([5]; Preemergence) | Plant response rating, Kochia ([5]; Preemergence, 31 g ai/ha) | Bluegrass plant response rating ([9]; Preemergence) | Quackgrass plant response rating ([10]; Preemergence)
50: Wheat plant response rating [1, 14]
95: Foxtail, Green plant response rating ([4]; Preemergence)
10: Plant response rating, Groundsel ([8]; 8 g ai/ha, preemergence)

CC(c1c(C(F)(F)F)nn(C)c1OC(F)F)S(=O)(=O)c1cccc[n+]1[O-] (centres unmarked) [Compound 5]
40: Kochia plant response rating ([5]; Preemergence)
98: Crabgrass, Large plant response rating [2, 15] | Dallisgrass plant response rating ([7]; Preemergence)
35: Plant response rating, Black Mustard ([6]; Preemergence, 16 g ai/ha)
55: Plant response rating, Goosegrass ([3]; Postemergence, 62 g ai/ha)
5: Plant response rating (0 to 100), Crabgrass, Large ([2]; Postemergence, 31 g ai/ha)
10: Plant response rating, Quackgrass ([10]; 8 g ai/ha, preemergence)
65: Plant response rating, Dallisgrass ([7]; Preemergence, 16 g ai/ha)
70: Wheat plant response rating [1, 13] | Wheat plant response rating [1, 14] | Plant response rating, Goosegrass ([3]; Postemergence, 250 g ai/ha) | Plant response rating, Foxtail, Green ([4]; Preemergence, 31 g ai/ha) | Plant response rating, Quackgrass ([10]; Preemergence, 31 g ai/ha)
50: Plant response rating, Quackgrass ([10]; Preemergence, 16 g ai/ha)
90: Plant response rating, Wheat ([1]; Preemergence, 500 g ai/ha) | Foxtail, Green plant response rating ([4]; Preemergence) | Mallow plant response rating ([11]; Preemergence)
75: Plant response rating, Black Mustard ([6]; Preemergence, 31 g ai/ha) | Plant response rating, Dallisgrass ([7]; Preemergence, 31 g ai/ha) | Bluegrass plant response rating ([9]; Preemergence) | Plant response rating, Bluegrass ([9]; Preemergence, 31 g ai/ha)
100: Crabgrass, Large plant response rating [2, 16] | Plant response rating (0 to 100), Crabgrass, Large ([2]; Preemergence, 250 g ai/ha) | Crabgrass, Large plant response rating [2, 17] | Goosegrass plant response rating [3, 15] | Goosegrass plant response rating [3, 16] | Plant response rating (0 to 100), Goosegrass ([3]; Preemergence, 250 g ai/ha) | Goosegrass plant response rating [3, 17] | Plant response rating, Groundsel ([8]; 8 g ai/ha, preemergence) | Groundsel plant response rating ([8]; Preemergence) | Plant response rating, Groundsel ([8]; Preemergence, 16 g ai/ha) | Plant response rating, Groundsel ([8]; Preemergence, 31 g ai/ha)
25: Plant response rating, Mallow ([11]; Preemergence, 16 g ai/ha)
60: Wheat plant response rating [1, 12] | Plant response rating, Crabgrass, Large ([2]; Postemergence, 125 g ai/ha) | Plant response rating, Crabgrass, Large ([2]; Postemergence, 250 g ai/ha) | Plant response rating, Goosegrass ([3]; Postemergence, 125 g ai/ha)
0: Plant response rating (0 to 100), Goosegrass ([3]; Postemergence, 31 g ai/ha) | Plant response rating, Foxtail, Green ([4]; 8 g ai/ha, preemergence) | Plant response rating, Kochia ([5]; 8 g ai/ha, preemergence) | Plant response rating, Kochia ([5]; Preemergence, 16 g ai/ha) | Plant response rating, Kochia ([5]; Preemergence, 31 g ai/ha) | Plant response rating, Black Mustard ([6]; 8 g ai/ha, preemergence) | Plant response rating, Dallisgrass ([7]; 8 g ai/ha, preemergence) | Plant response rating, Bluegrass ([9]; 8 g ai/ha, preemergence)
30: Plant response rating, Foxtail, Green ([4]; Preemergence, 16 g ai/ha)
20: Plant response rating, Crabgrass, Large ([2]; Postemergence, 62 g ai/ha) | Plant response rating, Bluegrass ([9]; Preemergence, 16 g ai/ha)
85: Black Mustard plant response rating ([6]; Preemergence) | Quackgrass plant response rating ([10]; Preemergence)

From US20100298141A1, “SUBSTITUTED PYRIDINE N-OXIDE HERBICIDES” (E. I. DU PONT DE NEMOURS AND COMPANY, priority 2007, published 2010)
